Experimental data taken from patent US11040028B2, “Penicinotam derivative, preparation method and use thereof” (OCEAN UNIVERSITY OF CHINA, priority 2017, dated 2021).

What was measured:
Format in all cases: cell-based
[1] = tested on: BHK-21 cells; experiment: Anti-fibrosis activity test: inhibition of BHK-21 cell proliferation (CCK-8); conditions: Mesocricetus auratus, BHK-21, 48 h
Procedure, shortened: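 Cells seeded at 2×10^4 cells/mL, allowed to adhere 24 hours, then exposed to graded compound concentrations in triplicate for 48 hours at 37° C, 5% CO2. CCK-8 added for 2 hours, absorbance read at 450 nm; inhibition versus blank control used to derive IC50. Pirfenidone served as positive control.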

[2] = tested on: human lung fibroblasts HFL1; experiment: Anti-fibrosis activity test: inhibition of proliferation of human lung fibroblasts HFL1 (CCK-8); conditions: Homo sapiens, HFL1, 48 h
Procedure, shortened: (§1)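 Read-out: absorbance at 450 nm after 2 h with CCK-8, following 48 h of compound exposure of adhered cells (2×10^4 cells/mL, 24 h attachment, 37° C, 5% CO2). Proliferation inhibition was taken relative to the blank control, and IC50 values were calculated from it.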

[3] = tested on: human hepatic stellate cells LX-2; experiment: Anti-fibrosis activity test: inhibition of proliferation of human hepatic stellate cells LX-2 (CCK-8); conditions: Homo sapiens, 48 h
Procedure, shortened: as §1

[4] = tested on: human fibrosarcoma cells HT-1080; experiment: Anti-fibrosis activity test: inhibition of proliferation of human fibrosarcoma cells HT-1080 (CCK-8); conditions: Homo sapiens, HT-1080, 48 h
Procedure, shortened: as §1

[5] = tested on: human dermal fibroblasts CCC-ESF-1; experiment: Anti-fibrosis activity test: inhibition of proliferation of human dermal fibroblasts CCC-ESF-1 (CCK-8); conditions: Fibroblast
Procedure, shortened: as §1

[6] = tested on: human embryonic lung fibroblast IMR-90; experiment: Anti-fibrosis activity test: inhibition of proliferation of human embryonic lung fibroblast IMR-90 (CCK-8)
Procedure, shortened: as §1

[7] = tested on: cardiac fibroblast RAT-iCell-C002; experiment: Anti-fibrosis activity test: inhibition of proliferation of cardiac fibroblast RAT-iCell-C002 (CCK-8); conditions: Cardiac fibroblast, 48 h
Procedure, shortened: as §1

[8] = tested on: NF-κB; experiment: Immunological activity test: inhibition of NF-κB activity; conditions: initial concentration of 30 μM; a/b isomers given as first/second symbol; read-out: IC50 (μM), inhibitory activity against NF-κB
Source text: Main references for immunological activity test of the compounds of the present application includes: Vogl, S.; Atanasov, A. G.; Binder, M.; Bulusu, M.; Zehl, M.; Fakhrudin, N.; Heiss, E. H.; Picker, P.; Wawrosch, C.; Saukel, J.; Reznicek, G.; Urban, E.; Bochkov, V.; Dirsch, V. M.; Kopp, B. J. Evid-Based Complementary Alern. Med. 2013, ID 395316. Commercially available parthenolide was utilized as a positive control.
The ability of the compounds of the present application to inhibit NF-κB activity was tested at an initial concentration of 30 μM.
The assay data for the compounds of the present application were further analyzed to determine their IC50 values.

[9] = CCK-8, 48 hours after administration
[10] = human lung fibroblasts HFL1, CCK-8, 48 hours
[11] = human hepatic stellate cells LX-2, CCK-8, 48 hours
[12] = human fibrosarcoma cells HT-1080, CCK-8, 48 hours
[13] = human dermal fibroblasts CCC-ESF-1, CCK-8, 48 hours
[14] = human embryonic lung fibroblast IMR-90, CCK-8, 48 hours
[15] = cardiac fibroblast RAT-iCell-C002, CCK-8, 48 hours

IC50 [4, 12]	IC50 [8]	IC50 ([4]; HT-1080 cells, 48 h, CCK-8)	SMILES	IC50 [1, 9]	IC50 [2, 10]	IC50 [3, 11]	IC50 [5, 13]	IC50 [6, 14]	IC50 [7, 15]	IC50 ([1]; 48 h, CCK-8)	IC50 ([2]; HFL1 cells, 48 h, CCK-8)	IC50 ([3]; LX-2, 48 h, LX-2 cells, CCK-8)	IC50 ([5]; Homo sapiens, CCC-ESF-1 cells, 48 h, CCK-8)	IC50 ([6]; Homo sapiens, IMR-90 cells, 48 h, CCK-8)	IC50 ([7]; RAT-iCell-C002 cells, CCK-8)
0.05 to 5 mM	1 to 10 µM	–	CC(C)=CCn1c2c(c(=O)c3ccccc31)C(=O)n1cccc1-2 [Compound 9a, 4-(3-Methylbut-2-en-1-yl)-9H-pyrrolizino[1,2-b]quinoline-9,10(4H)-dione]	20 to 100 mM	0.05 to 5 mM	0.05 to 5 mM	5 to 20 mM	0.05 to 5 mM	0.05 to 5 mM	–	–	–	–	–	–
0.05 to 5 mM	10 to 50 µM	–	CC(C)CCn1c2c(c(=O)c3ccccc31)C(=O)n1cccc1-2 [Compound 8a, 4-Isopentyl-9H-pyrrolizino[1,2-b]quinoline-9,10(4H)-dione]	5 to 20 mM	0.05 to 5 mM	0.05 to 5 mM	0.05 to 5 mM	5 to 20 mM	0.05 to 5 mM	–	–	–	–	–	–
0.05 to 5 mM	0.1 to 1 µM	–	O=C1c2c(n(-c3ccc(Cl)cc3)c3ccccc3c2=O)-c2cccn21 [Compound 34a, 4-(4-Chlorophenyl)-9H-pyrrolizino[1,2-b]quinoline-9,10(4H)-dione]	< 0.05 mM	0.05 to 5 mM	0.05 to 5 mM	5 to 20 mM	0.05 to 5 mM	0.05 to 5 mM	–	–	–	–	–	–
0.05 to 5 mM	10 to 50 µM	–	CC(C)CCOc1c2c(nc3ccccc13)-c1cccn1C2=O [Compound 8b, 9-(isopentyloxy)-10H-pyrrolizino[1,2-b]quinolin-10-one]	0.05 to 5 mM	0.05 to 5 mM	0.05 to 5 mM	0.05 to 5 mM	0.05 to 5 mM	0.05 to 5 mM	–	–	–	–	–	–
0.05 to 5 mM	1 to 10 µM	–	O=C1c2c(n(-c3ccc(Br)cc3)c3ccccc3c2=O)-c2cccn21 [Compound 64a, 4-(4-Bromophenyl)-9H-pyrrolizino[1,2-b]quinoline-9,10(4H)-dione]	0.05 to 5 mM	0.05 to 5 mM	0.05 to 5 mM	0.05 to 5 mM	0.05 to 5 mM	0.05 to 5 mM	–	–	–	–	–	–
0.05 to 5 mM	1 to 10 µM	–	O=C1c2c(n(Cc3ccc(Cl)cc3)c3ccc(F)cc3c2=O)-c2cccn21 [Compound 618a, 4-(4-Chlorobenzyl)-7-fluoro-9H-pyrrolizino[1,2-b]quinoline-9,10(4H)-dione]	0.05 to 5 mM	0.05 to 5 mM	0.05 to 5 mM	0.05 to 5 mM	0.05 to 5 mM	0.05 to 5 mM	–	–	–	–	–	–
–	1 to 10 µM	0.05 to 5 mM	Cc1ccc2c(=O)c3c([nH]c2c1)-c1cccn1C3=O [Compound 714a, 6-Methyl-9H-pyrrolizino[1,2-b]quinoline-9,10(4H)-dione]	–	–	–	–	–	–	0.05 to 5 mM	0.05 to 5 mM	0.05 to 5 mM	0.05 to 5 mM	0.05 to 5 mM	0.05 to 5 mM

More lines, now with the values behind:

SMILES	IC50 [4, 12]	IC50 [8]	IC50 ([4]; HT-1080 cells, 48 h, CCK-8)	IC50 [1, 9]	IC50 [2, 10]	IC50 [3, 11]	IC50 [5, 13]	IC50 [6, 14]	IC50 [7, 15]	IC50 ([1]; 48 h, CCK-8)	IC50 ([2]; HFL1 cells, 48 h, CCK-8)	IC50 ([3]; LX-2, 48 h, LX-2 cells, CCK-8)	IC50 ([5]; Homo sapiens, CCC-ESF-1 cells, 48 h, CCK-8)	IC50 ([6]; Homo sapiens, IMR-90 cells, 48 h, CCK-8)	IC50 ([7]; RAT-iCell-C002 cells, CCK-8)
O=C1c2c(n(Cc3cc(C(F)(F)F)cc(C(F)(F)F)c3)c3ccc(F)cc3c2=O)-c2cccn21 [Compound 623a, 4-(3,5-Bis(trifluoromethyl)benzyl)-7-fluoro-9H-pyrrolizino[1,2-b]quinoline-9,10(4H)-dione]	0.05 to 5 mM	1 to 10 µM	–	< 0.05 mM	0.05 to 5 mM	0.05 to 5 mM	< 0.05 mM	0.05 to 5 mM	0.05 to 5 mM	–	–	–	–	–	–
O=C1c2c(nc3cc(C(F)(F)F)ccc3c2OCc2ccc(Cl)cc2)-c2cccn21 [Compound 544b, 9-((4-chlorobenzyl)oxy)-6-(trifluoromethyl)-10H-pyrrolizino[1,2-b]quinolin-10-one]	0.05 to 5 mM	1 to 10 µM	–	0.05 to 5 mM	0.05 to 5 mM	0.05 to 5 mM	0.05 to 5 mM	0.05 to 5 mM	0.05 to 5 mM	–	–	–	–	–	–
O=C1c2c(nc3ccccc3c2Oc2ccc(Cl)cc2)-c2cccn21 [Compound 34b, 9-(4-chlorophenoxy)-10H-pyrrolizino[1,2-b]quinolin-10-one]	0.05 to 5 mM	1 to 10 µM	–	0.05 to 5 mM	0.05 to 5 mM	0.05 to 5 mM	< 0.05 mM	0.05 to 5 mM	0.05 to 5 mM	–	–	–	–	–	–
O=C1c2c(n(Cc3ccc(C(F)(F)F)cc3)c3ccc(F)cc3c2=O)-c2cccn21 [Compound 620a, 7-Fluoro-4-(4-(trifluoromethyl)benzyl)-9H-pyrrolizino[1,2-b]quinoline-9,10(4H)-dione]	0.05 to 5 mM	1 to 10 µM	–	< 0.05 mM	0.05 to 5 mM	0.05 to 5 mM	5 to 20 mM	0.05 to 5 mM	0.05 to 5 mM	–	–	–	–	–	–
N#Cc1ccc(COc2c3c(nc4ccc(C#N)cc24)-c2cccn2C3=O)cc1 [Compound 626b, 9-((4-cyanobenzyl)oxy)-10-oxo-10H-pyrrolizino[1,2-b]quinoline-7-carbonitrile]	0.05 to 5 mM	1 to 10 µM	–	0.05 to 5 mM	0.05 to 5 mM	0.05 to 5 mM	< 0.05 mM	0.05 to 5 mM	0.05 to 5 mM	–	–	–	–	–	–
O=C1c2c(nc3ccc(F)cc3c2OCc2ccc(Cl)cc2)-c2cccn21 [Compound 618b, 9-((4-chlorobenzyl)oxy)-7-fluoro-10H-pyrrolizino[1,2-b]quinolin-10-one]	0.05 to 5 mM	1 to 10 µM	–	0.05 to 5 mM	0.05 to 5 mM	0.05 to 5 mM	0.05 to 5 mM	0.05 to 5 mM	0.05 to 5 mM	–	–	–	–	–	–
N#Cc1ccc(Cn2c3c(c(=O)c4cc(C#N)ccc42)C(=O)n2cccc2-3)cc1 [Compound 626a, 4-(4-Cyanobenzyl)-9,10-dioxo-4,10-dihydro-9H-pyrrolizino[1,2-b]quinoline-7-carbonitrile]	0.05 to 5 mM	1 to 10 µM	–	0.05 to 5 mM	0.05 to 5 mM	0.05 to 5 mM	< 0.05 mM	0.05 to 5 mM	0.05 to 5 mM	–	–	–	–	–	–
N#Cc1ccc2c(OCc3ccc(F)cc3)c3c(nc2c1)-c1cccn1C3=O [Compound 514b, 9-((4-fluorobenzyl)oxy)-10-oxo-10H-pyrrolizino[1,2-b]quinoline-6-carbonitrile]	0.05 to 5 mM	1 to 10 µM	–	0.05 to 5 mM	0.05 to 5 mM	0.05 to 5 mM	0.05 to 5 mM	0.05 to 5 mM	0.05 to 5 mM	–	–	–	–	–	–
O=C1c2c(nc3cc(C(F)(F)F)ccc3c2OCc2ccccc2Cl)-c2cccn21 [Compound 546b, 9-((2-chlorobenzyl)oxy)-6-(trifluoromethyl)-10H-pyrrolizino[1,2-b]quinolin-10-one]	0.05 to 5 mM	0.1 to 1 µM	–	0.05 to 5 mM	0.05 to 5 mM	0.05 to 5 mM	0.05 to 5 mM	0.05 to 5 mM	0.05 to 5 mM	–	–	–	–	–	–
O=C1c2c(nc3ccc(F)cc3c2OCc2ccc(Cl)cc2F)-c2cccn21 [Compound 621b, 9-((4-chloro-2-fluorobenzyl)oxy)-7-fluoro-10H-pyrrolizino[1,2-b]quinolin-10-one]	0.05 to 5 mM	1 to 10 µM	–	0.05 to 5 mM	0.05 to 5 mM	0.05 to 5 mM	0.05 to 5 mM	0.05 to 5 mM	0.05 to 5 mM	–	–	–	–	–	–
O=C1c2c(nc3ccc(F)cc3c2OCc2ccc(C(F)(F)F)cc2)-c2cccn21 [Compound 620b, 7-Fluoro-9-((4-(trifluoromethyl)benzyl)oxy)-10H-pyrrolizino[1,2-b]quinolin-10-one]	0.05 to 5 mM	1 to 10 µM	–	0.05 to 5 mM	0.05 to 5 mM	0.05 to 5 mM	5 to 20 mM	0.05 to 5 mM	0.05 to 5 mM	–	–	–	–	–	–
N#Cc1ccc2c(OCc3ccccc3F)c3c(nc2c1)-c1cccn1C3=O [Compound 516b, 9-((2-fluorobenzyl)oxy)-10-oxo-10H-pyrrolizino[1,2-b]quinoline-6-carbonitrile]	0.05 to 5 mM	0.1 to 1 µM	–	0.05 to 5 mM	0.05 to 5 mM	0.05 to 5 mM	0.05 to 5 mM	0.05 to 5 mM	0.05 to 5 mM	–	–	–	–	–	–
N#Cc1ccc2nc3c(c(OCc4ccc(Cl)cc4)c2c1)C(=O)n1cccc1-3 [Compound 625b, 9-((4-chlorobenzyl)oxy)-10-oxo-10H-pyrrolizino[1,2-b]quinoline-7-carbonitrile]	0.05 to 5 mM	1 to 10 µM	–	0.05 to 5 mM	0.05 to 5 mM	0.05 to 5 mM	0.05 to 5 mM	0.05 to 5 mM	0.05 to 5 mM	–	–	–	–	–	–
